Experimental data as given in US20220242870A1, “HETEROCYCLE-FUSED PYRIMIDINE DERIVATIVE AND USE THEREOF” (VORONOI Inc., priority 2019, published 2022).

Target: T1, human GST-HPK1 (1-346) (Homo sapiens, UniProt Q92918)
T1 construct: purified human GST-HPK1 (1-346, Signalchem) enzyme; purchased Signalchem
T1 sequence (Q92918 1-346): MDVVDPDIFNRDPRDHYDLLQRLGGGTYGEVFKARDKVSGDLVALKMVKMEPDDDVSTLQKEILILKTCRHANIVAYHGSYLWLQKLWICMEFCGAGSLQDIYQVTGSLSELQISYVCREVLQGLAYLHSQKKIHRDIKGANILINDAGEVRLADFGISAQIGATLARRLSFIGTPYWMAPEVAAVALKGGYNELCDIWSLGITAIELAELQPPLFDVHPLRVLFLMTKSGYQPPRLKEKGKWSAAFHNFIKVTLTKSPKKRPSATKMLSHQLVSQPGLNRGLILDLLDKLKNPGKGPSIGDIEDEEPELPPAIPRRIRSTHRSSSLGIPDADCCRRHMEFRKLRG
Assay: HPK1 enzyme inhibitory ability (ADP-Glo kinase assay)
Assay type: biochemical
Conditions: human GST-HPK1 3 ng, ATP 3 uM, 25° C. 2 hours
Experimental: In order to evaluate the inhibitory activities of the example compounds according to the present invention on the HPK1 (hematopoietic progenitor kinase 1) enzyme, the following experiment was performed. The example compounds were reacted with the purified human GST-HPK1 (1-346, Signalchem) enzyme to evaluate the enzyme inhibitory ability by the following method. As the reaction buffer, a composition of 40 mM Tris-HCl pH 7.4, 20 mM MgCl2, 0.5 mg/mL BSA and 50 uM DTT was used, and reactions of all test matters were performed on the reaction buffer. Upon the test, the human GST-HPK1 (3 ng) enzyme, the purified ATP (3 uM) and a specific substrate solution were reacted at 25° C. for 2 hours, and then the enzyme activity was identified using an in vitro ADP-Glo™ kinase assay (promega). The enzyme activity reaction solution, the ADP-Glo reaction solution and the enzyme ability detection solution were reacted in a ratio of 2:2:1 to measure luminescence. The enzyme activity inhibition degree according to the treatment concentrations of the respective compounds was calculated based on the fluorescence of the enzyme activity of the solvent control group that was not treated with the compound, where the concentration of each compound that inhibited enzyme activity inhibition by 50% was determined as an IC50 (nM) value.

SMILES	IC50 [nM]
COc1cc(N2CCN(C)CC2)ccc1Nc1nc(N2OCC[C@H]2c2ccccc2)c2cc[nH]c2n1 [Example 80, (S)-N-(2-methoxy-4-(4-methylpiperazin-1-yl)phenyl)-4-(3-phenylisoxazolidin-2-yl)-7H-pyrrolo[2,3-d]pyrimidin-2-amine]	> 500
c1ccc([C@@H]2CCON2c2nc(Nc3ccc(N4CCC(N5CCN(C6CC6)CC5)CC4)cc3)nc3[nH]ccc23)cc1 [Example 86, (S)-N-(4-(4-(4-cyclopropylpiperazin-1-yl)piperidin-1-yl)phenyl)-4-(3-phenylisoxazolidin-2-yl)-7H-pyrrolo[2,3-d]pyrimidin-2-amine]	> 500
COc1cc(N2CCC(N3CCN(C)CC3)CC2)ccc1Nc1nc(N2OCC[C@H]2c2ccccc2)c2cc[nH]c2n1 [Example 88, (S)-N-(2-methoxy-4-(4-(4-methylpiperazin-1-yl)piperidin-1-yl)phenyl)-4-(3-phenylisoxazolidin-2-yl)-7H-pyrrolo[2,3-d]pyrimidin-2-amine]	> 500
COc1cc(C(=O)N2CCC(N3CCOCC3)CC2)ccc1Nc1nc(N2OCC[C@H]2c2ccccc2)c2cc[nH]c2n1 [Example 97, (S)-(3-methoxy-4-((4-(3-phenylisoxazolidin-2-yl)-7H-pyrrolo[2,3-d]pyrimidin-2-yl)amino)phenyl)(4-morpholinopiperidin-1-yl)methanone]	> 500
COc1cc(C(=O)N2CCC(N3CCN(C)CC3)CC2)ccc1Nc1nc(N2OCC[C@H]2c2ccccc2)c2cc[nH]c2n1 [Example 98, (S)-(3-methoxy-4-((4-(3-phenylisoxazolidin-2-yl)-7H-pyrrolo[2,3-d]pyrimidin-2-yl)amino)phenyl)(4-(4-methylpiperazin-1-yl)piperidin-1-yl)methanone]	> 500
Cc1cc(Nc2nc(N3OCC[C@H]3c3ccccc3)c3cc[nH]c3n2)cc(C)c1OCCCN1CCN(C)CC1 [Example 102, (S)-N-(3,5-dimethyl-4-(3-(4-methylpiperazin-1-yl)propoxy)phenyl)-4-(3-phenylisoxazolidin-2-yl)-7H-pyrrolo[2,3-d]pyrimidin-2-amine]	≥ 250
CN(C)C(=O)Cn1cc(Nc2nc(N3OCC[C@H]3c3ccccc3)c3cc[nH]c3n2)cn1 [Example 103, S-N,N-dimethyl-2-(4-((4-(3-phenylisoxazolidin-2-yl)-7H-pyrrolo[2,3-d]pyrimidin-2-yl)amino)-1H-pyrazol-1-yl)acetamide]	> 500
COc1cc2c(cc1Nc1nc(N3OCC[C@H]3c3ccccc3)c3cc[nH]c3n1)CN(C)CC2 [Example 106, (S)-6-methoxy-2-methyl-N-(4-(3-phenylisoxazolidin-2-yl)-7H-pyrrolo[2,3-d]pyrimidin-2-yl)-1,2,3,4-tetrahydroisoquinolin-7-amine]	> 500
COc1cc2c(cc1Nc1nc(N3OCC[C@H]3c3ccccc3)c3cc[nH]c3n1)CNCC2 [Example 107, (S)-6-methoxy-N-(4-(3-phenylisoxazolidin-2-yl)-7H-pyrrolo[2,3-d]pyrimidin-2-yl)-1,2,3,4-tetrahydroisoquinolin-7-amine]	> 500
COc1cc2c(cc1Nc1nc(N3OCC[C@H]3c3ccccc3)c3cc[nH]c3n1)C(=O)NCC2 [Example 108, (S)-6-methoxy-7-((4-(3-phenylisoxazolidin-2-yl)-7H-pyrrolo[2,3-d]pyrimidin-2-yl)amino)-3,4-dihydroisoquinolin-1(2H)-one]	≥ 250
CC(=O)N1CCc2cc(Nc3nc(N4OCC[C@H]4c4ccccc4)c4cc[nH]c4n3)ccc2C1 [Example 112, (S)-1-(6-((4-(3-phenylisoxazolidin-2-yl)-7H-pyrrolo[2,3-d]pyrimidin-2-yl)amino)-3,4-dihydroisoquinolin-2(1H)-yl)ethan-1-one]	> 500
COc1ccc2c(c1Nc1nc(N3OCC[C@H]3c3ccccc3)c3cc[nH]c3n1)CCNC2 [Example 113, (S)-6-methoxy-N-(4-(3-phenylisoxazolidin-2-yl)-7H-pyrrolo[2,3-d]pyrimidin-2-yl)-1,2,3,4-tetrahydroisoquinolin-5-amine]	> 500

Target: T2, human FLT3-ITD enzyme (Homo sapiens, UniProt P36888)
T2 sequence (P36888 1-993): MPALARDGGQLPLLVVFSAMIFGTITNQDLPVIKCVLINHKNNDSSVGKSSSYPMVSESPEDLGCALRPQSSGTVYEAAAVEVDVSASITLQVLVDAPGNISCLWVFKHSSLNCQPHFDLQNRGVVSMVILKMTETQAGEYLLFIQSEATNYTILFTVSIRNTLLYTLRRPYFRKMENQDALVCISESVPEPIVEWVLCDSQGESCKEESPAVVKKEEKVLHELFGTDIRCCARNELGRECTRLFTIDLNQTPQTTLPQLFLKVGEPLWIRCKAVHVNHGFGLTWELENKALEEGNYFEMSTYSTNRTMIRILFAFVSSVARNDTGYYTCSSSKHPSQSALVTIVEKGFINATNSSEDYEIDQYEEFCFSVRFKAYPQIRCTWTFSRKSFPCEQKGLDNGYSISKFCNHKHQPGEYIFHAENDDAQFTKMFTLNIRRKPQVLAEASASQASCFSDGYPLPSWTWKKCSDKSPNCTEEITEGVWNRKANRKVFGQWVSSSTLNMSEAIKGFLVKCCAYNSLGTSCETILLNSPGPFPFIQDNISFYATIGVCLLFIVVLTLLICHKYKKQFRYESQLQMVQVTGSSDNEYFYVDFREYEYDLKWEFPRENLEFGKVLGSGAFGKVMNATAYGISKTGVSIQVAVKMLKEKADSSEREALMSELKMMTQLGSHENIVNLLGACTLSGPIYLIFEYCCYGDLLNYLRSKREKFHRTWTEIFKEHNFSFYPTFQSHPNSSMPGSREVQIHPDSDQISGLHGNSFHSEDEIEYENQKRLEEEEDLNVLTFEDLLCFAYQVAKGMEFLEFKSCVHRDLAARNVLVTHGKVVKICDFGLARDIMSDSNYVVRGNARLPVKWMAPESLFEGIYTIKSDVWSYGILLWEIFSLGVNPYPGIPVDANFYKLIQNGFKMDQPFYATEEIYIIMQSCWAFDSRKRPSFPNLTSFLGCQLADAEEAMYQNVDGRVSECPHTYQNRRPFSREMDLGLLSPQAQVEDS
Assay: FLT3 enzyme inhibitory ability (ADP-Glo kinase assay)
Assay type: biochemical
Conditions: human FLT3-ITD enzyme 10 ng, ATP 10 μM, 25° C. 1 hour
Experimental: The inhibitory activities of the example compounds according to the present invention to the FLT3-ITD enzyme were evaluated. Specifically, the compound of the present invention was reacted with a purified human FLT3-ITD enzyme (Signalchem). A composition of 40 mM Tris-HCl pH 7.4, 20 mM MgCl2, 0.5 mg/mL BSA and 50 μM DTT was used as a reaction buffer, and reactions of all test matters were performed on the reaction buffer. Upon the test, human FLT3-ITD enzyme (10 ng), purified ATP (10 μM) and a specific substrate solution were reacted at 25° C. for 1 hour, and then the enzyme activity was identified using an in vitro ADP-Glo™ kinase assay (Promega). The enzyme activity reaction solution, the ADP-Glo reaction solution and the enzyme ability detection solution were reacted in a ratio of 2:2:1, and the activity inhibition degree of the enzyme was measured as luminescence. Using the solvent-treated group that was not treated with the compound as a control group, the enzyme activity inhibition degree according to the treatment concentration of each compound was calculated based on the enzyme activity fluorescence degree, and the concentration of each compound that inhibited 50%, IC50 (nM), was determined using Prism Software (version 5.01, GraphPad).

SMILES	IC50 [nM]
COc1cc(-c2cnn(C)c2)ccc1Nc1nc(N2N=CCC2c2ccccc2)c2sccc2n1 (stereo not shown) [Example 42, N-(2-methoxy-4-(1-methyl-1H-pyrazol-4-yl)phenyl)-4-(5-phenyl-4,5-dihydro-1H-pyrazol-1-yl)thieno[3,2-d]pyrimidin-2-amine]	> 500
Cc1cc(Nc2nc(N3N=CCC3c3ccccc3)c3sccc3n2)cc(C)c1OCCCN1CCCC1 (stereo not shown) [Example 49, N-(3,5-dimethyl-4-(3-(pyrrolidin-1-yl)propoxy)phenyl)-4-(5-phenyl-4,5-dihydro-1H-pyrazol-1-yl)thieno[3,2-d]pyrimidin-2-amine]	> 500
Cc1cc(Nc2nc(N3N=CCC3c3ccccc3)c3sccc3n2)cc(C)c1OCCCN1CCN(C)CC1 (stereo not shown) [Example 50, N-(3,5-dimethyl-4-(3-(4-methylpiperazin-1-yl)propoxy)phenyl)-4-(5-phenyl-4,5-dihydro-1H-pyrazol-1-yl)thieno[3,2-d]pyrimidin-2-amine]	> 500
CN1CCN(c2ccc(Nc3nc(N4N=CCC4c4ccccc4)c4sccc4n3)cc2C(F)(F)F)CC1 (stereo not shown) [Example 53, N-(4-(4-methylpiperazin-1-yl)-3-(trifluoromethyl)phenyl)-4-(5-phenyl-4,5-dihydro-1H-pyrazol-1-yl)thieno[3,2-d]pyrimidin-2-amine]	> 500
CN1CCN(Cc2ccc(Nc3nc(N4N=CCC4c4ccccc4)c4sccc4n3)cc2C(F)(F)F)CC1 (stereo not shown) [Example 54, N-(4-((4-methylpiperazin-1-yl)methyl)-3-(trifluoromethyl)phenyl)-4-(5-phenyl-4,5-dihydro-1H-pyrazol-1-yl)thieno[3,2-d]pyrimidin-2-amine]	> 500
CN1CCN(C2CCN(c3c(F)cc(Nc4nc(N5N=CCC5c5ccccc5)c5sccc5n4)cc3F)CC2)CC1 (stereo not shown) [Example 55, N-(3,5-difluoro-4-(4-(4-methylpiperazin-1-yl)piperidin-1-yl)phenyl)-4-(5-phenyl-4,5-dihydro-1H-pyrazol-1-yl)thieno[3,2-d]pyrimidin-2-amine]	> 500
CCN1CCN(c2c(F)cc(Nc3nc(N4N=CCC4c4ccccc4)c4sccc4n3)cc2F)CC1 (stereo not shown) [Example 56, N-(4-(4-ethylpiperazin-1-yl)-3,5-difluorophenyl)-4-(5-phenyl-4,5-dihydro-1H-pyrazol-1-yl)thieno[3,2-d]pyrimidin-2-amine]	> 500
